# Assay results reported in publication PMC9551276, “Design, synthesis and biological evaluation of novel orthosteric-allosteric ligands of the cannabinoid receptor type 2 (CB2R)” (Frontiers in Chemistry, 2022).
# How the values were obtained:
# hCB2R [1] = molecular target: T1, hCB2R (Homo sapiens, UniProt P34972); experiment: DiscoveRx HitHunter inhibition of FSK-stimulated cAMP accumulation; type: cell-based
# Description: Inhibition of FSK-stimulated cAMP accumulation was measured using the DiscoveRx HitHunter assay.
# hCB2R [2] = molecular target: T1, hCB2R; experiment: DiscoveRx PathHunter βarrestin2 recruitment; type: cell-based
# Description: βarrestin2 recruitment was quantified using the DiscoveRx PathHunter® assay. […] Detection solution was added to cells (DiscoveRx), and cells were incubated for 60 min at room temperature. Chemiluminescence was measured on a Cytation5 plate reader (top read, gain 200, integration time 10,000 ms).
# hCB1R = molecular target: T2, hCB1R (Homo sapiens, UniProt P21554); experiment: [3H]CP55,940 radioligand displacement, CHO-K1 hCB1R membranes; type: binding; conditions: % [3H]CP55,940 bound, 1 nM radioligand, 2 h
# T2 construct: expressed in transfected cells; host or cells: CHO-K1 (ATCC CCL-61) stably expressing hCB1R; membranes
# T2 sequence (P21554 whole entry): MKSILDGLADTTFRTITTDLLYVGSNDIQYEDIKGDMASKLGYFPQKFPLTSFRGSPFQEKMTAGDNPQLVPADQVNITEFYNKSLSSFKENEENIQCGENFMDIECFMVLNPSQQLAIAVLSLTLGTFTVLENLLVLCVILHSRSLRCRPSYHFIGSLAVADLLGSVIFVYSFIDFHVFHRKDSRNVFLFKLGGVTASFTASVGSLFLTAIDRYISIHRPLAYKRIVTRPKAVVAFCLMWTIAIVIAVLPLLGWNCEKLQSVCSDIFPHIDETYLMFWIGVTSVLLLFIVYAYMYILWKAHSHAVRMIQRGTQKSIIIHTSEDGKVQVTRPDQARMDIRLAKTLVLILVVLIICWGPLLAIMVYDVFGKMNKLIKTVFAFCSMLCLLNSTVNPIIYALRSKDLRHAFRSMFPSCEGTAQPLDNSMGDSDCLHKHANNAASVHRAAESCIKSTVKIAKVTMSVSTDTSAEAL
# Description: (§1) CHO-K1 cells were thawed, diluted in Tris buffer (50 mM Tris [pH 7.4]) and homogenized in a 1 ml hand-held homogenizer. hCB1R and hCB2R CHO-K1 cell membranes were collected by cavitation in a pressure cell, and sedimented by ultracentrifugation. Pellets were resuspended in TME buffer (50 mM Tris, 5 mM MgCl2, 1 mM EDTA [pH 7.4]), and protein concentration was measured via the Bradford method according to the manufacturer’s directions (Bio-Rad Laboratories, Mississauga, ON). […] Radioligand binding began with the addition of CHO-K1 cell membranes (25 µg protein per sample). Assays were performed for 120 min at 37°C and stopped by the addition of ice-cold Tris binding buffer (pH 7.4), followed by vacuum filtration using a 24-well sampling manifold (Brandel Cell Harvester; Brandel Inc., Gaithersburg, MD, United States ). Brandel GF/B filter paper was soaked with wash buffer at 4 °C for at least 24 h. Each filter paper was washed 6 times with a 1.2 ml aliquot of Tris-binding buffer (pH 7.4), then air-dried and submerged in 5 ml of scintillation fluid (Ultima Gold XR, PerkinElmer). Liquid scintillation spectrometry was used to quantify radioactivity.
# hCB2R [3] = molecular target: T1, hCB2R; experiment: [3H]CP55,940 radioligand displacement, CHO-K1 hCB2R membranes; type: binding
# Description: as §1, with “Assays were performed for 120 min at 37°C and stopped by the addition of ice-cold Tris binding buffer (pH 7.4), followed by vacuum filtration using a 24-well sampling manifold (Brandel Cell Harvester; Brandel Inc., Gaithersburg, MD, United States ).” left out
# [4] = test system: human microglial cells (HMC3); experiment: IL-6 and IL-10 release (ELISA) in LPS/TNFα-stimulated HMC3 cells; type: cell-based
# Description: The concentrations of pro-inflammatory (IL-6) and anti-inflammatory (IL-10) interleukins were determined by performing specific ELISA assays (MyBioSource, San Diego, CA, United States ) on collected culture media. Human microglial cells (HMC3) were exposed to pretreatment with test compounds for 1 h followed by stimulation with LPS (10 μg/ml)/TNFα (50 ng/ml) for 24 h. In competition experiments, the CB2R antagonist (SR144528, 1 μM) or the CB2R positive allosteric modulator (EC21a 1 or 10 μM) were administered 15 min before agonist administration.
# HMC3 cells = experiment: MTT assay, HMC3 cell viability; type: cell-based, human
# Description: FIGURE 7 MTT assay performed with different concentrations of JR64a. Data represent means ± S.E.M. from n = 3 independent experiments, performed in triplicate. Statistical analysis was performed by ordinary one-way ANOVA followed by Tukey’s multiple comparison test. ^# p < 0.05 vs. control.
# T1 sequence (P34972 whole entry): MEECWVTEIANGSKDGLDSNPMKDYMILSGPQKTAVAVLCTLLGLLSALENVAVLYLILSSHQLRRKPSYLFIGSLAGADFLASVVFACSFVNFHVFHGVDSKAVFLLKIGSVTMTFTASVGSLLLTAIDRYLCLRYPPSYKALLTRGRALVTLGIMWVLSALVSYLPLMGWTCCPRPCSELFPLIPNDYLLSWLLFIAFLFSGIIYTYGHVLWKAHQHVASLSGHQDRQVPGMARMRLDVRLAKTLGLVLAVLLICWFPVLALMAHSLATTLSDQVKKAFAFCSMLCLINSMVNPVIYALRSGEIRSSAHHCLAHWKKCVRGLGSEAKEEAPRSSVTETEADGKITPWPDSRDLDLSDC
structure (smiles),measurement,setting,value
"Cc1c(Br)cn(CCCCCCCn2c(=O)c(C(=O)NC3CCC(C)CC3)cc3cccnc32)c(=O)c1NC(=O)C1CCCCCC1 (stereo not drawn) [JR64a, 1-(7-(5-bromo-3-(cycloheptanecarboxamido)-4-methyl-2-oxopyridin-1(2H)-yl)heptyl)-N-(4-methylcyclohexyl)-2-oxo-1,2-dihydro-1,8-naphthyridine-3-carboxamide]",EC50,hCB2R [1],8.6 nM
same,Response in inhibition of FSK-stimulated cAMP accumulation,hCB2R [1]; CHO-K1 hCB2R,modest partial agonist activity
same,"Inhibition of cAMP E max (% CP55,940) ± S.E.M","hCB2R [1]; CHO-K1 hCB2R, 10 µM FSK, 90 min","38 ± 0.74 % CP55,940"
same,EC50,hCB2R [2],> 10000 nM
same,"βarrestin2 recruitment E max (% CP55,940) ± S.E.M","hCB2R [2]; CHO-K1 hCB2R, 90 min","45 ± 2.4 % CP55,940"
same,"hCB1R E min (% CP55,940) ± S.E.M",hCB1R,"104 ± 4.7 % CP55,940"
same,IC50,hCB2R [3],0.6 nM
same,"hCB2R E min (% CP55,940) ± S.E.M","hCB2R [3]; % [3H]CP55,940 bound, 1 nM radioligand, 2 h","20 ± 10.3 % CP55,940"
same,Anti-inflammatory properties,"[4]; 10 μM, LPS/TNFα-stimulated HMC3",good anti-inflammatory properties
same,Anti-inflammatory activity (IL-6 and IL-10 levels),"[4]; 10 or 25 μM, 1 h pretreatment, then LPS/TNFα 24 h",marked anti-inflammatory activity
same,Anti-inflammatory activity after pretreatment with CB2R antagonist SR144528,"[4]; SR144528 1 μM 15 min before agonist, LPS/TNFα 24 h",completely abolished
same,HMC3 cytotoxicity,HMC3 cells; 10 μM,no relevant HMC3 cytotoxicity
same,Decrease in cell viability,HMC3 cells; 25 μM,~10%
same,Cytotoxic effects in HMC3 cells,HMC3 cells; 1 and 10 μM,no relevant cytotoxic effects
same,melting point,,121 °C (dec.)
